This data set relates to Human Colon Tumour (HCT) 116 cells. In words: Western Blot of p53 isoforms after doxorubicin treatment with or without pulsed technology. Type of data set: cell-based. As to conditions: for uptake / intra-cellular delivery of doxorubicin from the media: concluded from upregulation of p53 isoforms. Here is the method: Human Colon Tumour (HCT) 116 cells (adherent cells) (ATCC, USA-ATCC® CCL-247™) were seeded at a density of 3×10^5 cells per well in two CELLSTAR® 6-well plates (9.6 cm^2) in a final volume of 5 mL Dulbecco's Modified Eagle Medium (DMEM) (Thermo Fisher, USA)+10% Fetal Bovine Serum (FBS) (Hyclone, USA) 24 hours before treatment.
The naked agent used was Doxorubicin (0.25 μM) (Sigma Aldrich) in absolute ethanol and was given to the cells for a 1 hour treatment period and incubated at 37° C., at 5% CO^2.
After treatment the media was removed and fresh media was added to the cells. One of the plates was incubated directly at 37° C., at 5% CO^2 and the second plate was placed in a different incubator and pulsed using the pulsed technology of the present invention at 37° C., at 5% CO^2.
Protein extracts were collected at 3 hours, 6 hours, 9 hours, 16 hours or 24 hours of treatment for analysis by SDS-page.
1. For protein extraction the cells were washed twice with ice-cold PBS and then lysed in NP-40 extraction buffer (50 mM Tris pH 7.5; 10% glycerol; 0.1% “NP-40 Alternative” (Merck Millpore, USA); 100 mM NaCl; 0.2 mM EDTA) supplemented with 1× Complete™ Protease Inhibitor Cocktail (Roche, Switzerland). Extracts were sonicated (20 seconds, 20% amplitude) and protein concentration was determined using BCA™ Protein Assay Kit (ThermoFisher Scientific, USA) according to the manufacturer's recommendations.
1. Protein extracts (15/20 μg depending on the experiment) were supplemented with 0.1M dithiothreitol (DTT) and 1×LDS buffer (Invitrogen, USA) and were heated at 95° C. for 10 min before loading on NuPAGE 10% Bis-Tris polyacrylamide gels (Invitrogen, USA).
2. Protein samples were separated by electrophoresis (100V) using 1×MOPS Running Buffer. Transfer of proteins was performed at 12V overnight onto a nitrocellulose membrane (Protran 0.1 μm from GE Healthcare, USA) in 1× Transfer Buffer supplemented with 20% methanol. 1× Transfer Buffer is prepared from 10× Wet blot solution containing 144 g of glycine and 30 g Tris-Base in a final volume of 1 L milli-Q water.
3. Membranes were blocked for 30 min in 5% BSA diluted in PBS-0.1% Tween20 before being incubated overnight with a primary antibody (Mouse monoclonal antibody DO1). After a wash of 15 min in PBS-Tween20, membranes were incubated for 1 h with a corresponding secondary antibody (HRP conjugated Donkey anti Mouse). All secondary antibodies, conjugated with Horse Radish Peroxidase (HRP), were purchased from Jackson ImmunoResearch lab and used at 1:10000/1:15000 dilution (depending on the antibody) in 5% BSA-PBS-Tween20.
At the end of the incubation membranes were washed twice with PBS-Tween20 for 15 min followed by a final 10 min wash with PBS. The chemiluminescence signal was detected on Hyperfilm™ ECL (Cytiva, USA) using the Amersham ECL Western Blotting Detection System (Cytiva, USA).
In general terms: A western blot detects proteins with antibodies after separation by electrophoresis.

“Also recorded” adds a separate entry of the source.

Turning to `COc1cccc2c1C(=O)c1c(O)c3c(c(O)c1C2=O)C[C@@](O)(C(=O)CO)C[C@@H]3O[C@H]1C[C@H](N)[C@H](O)[C@H](C)O1` [Doxorubicin], for the setting “0.25 μM doxorubicin for 1 hour, pulsed technology vs control, after 16 hours”, the “p53alpha expression (Western Blot, FIG. 8)” value was “significant overproduction of p53alpha compared to the control”. Moreover, under “Doxorubicin 0.25 μM for 1 hour, pulsed technology vs control”, the “Other isoforms of p53 (d133p53alpha, d133p53beta, d160p53beta) expression (Western Blot, FIG. 7)” value is recorded as “more upregulated”. Moreover, the “p53alpha expression (Western Blot, FIG. 7)” value (Doxorubicin 0.25 μM for 1 hour, pulsed technology vs control, seen from 3 hours, most evident 24 hours post-treatment) was “upregulated”. Moreover, the “γH2AX expression (ionising radiation marker, Western Blot)” value (doxorubicin, pulsed technology arm vs control arm) is on record as “no observed change; also recorded: remained unchanged”. Further, the “uptake / intra-cellular delivery of doxorubicin from the media” value was “significantly improved” (pulsed technology vs control) and “increases the ability of the cells to uptake doxorubicin” (pulsed technology vs control, listed as doxorubicin).

The values above are taken from patent publication US20230159954A1, “Apparatus for Improved Transfection and / or intracellular delivery efficiency of an Agent into a Eukaryotic Cell and / or Protein Expression and Method of Use Thereof” (St Andrews Pharmaceutical Technology Ltd., priority 2020, published 2023).
